Legend:
[1] = system: Primary human fibroblasts C4 (GM04545, Coriell); assay: Lipid peroxidation assay (BODIPY 581/591-C11); assay type: cell-based; settings: 10 µM test compound, 72 hours
Source text: Lipid peroxidation is a well defined mechanism of cellular damage in both animals and plants that occurs during aging and in some disease states. This process proceeds by a free radical chain reaction mechanism. […] If not terminated fast enough, lipid peroxidation damages cellular membranes, affect membrane fluidity and also mitochondrial function. In addition, end products of lipid peroxidation may be mutagenic and carcinogenic. For instance, the reactive end product of lipid peroxidation, malondialdehyde, directly causes DNA damage. Experimental Procedure: […] BODIPY 581/591-C11 can be used to measure antioxidant activity in lipid environments by exploiting its loss of fluorescence upon interaction with peroxyl radicals. […] After that, 0.1 ml freshly prepared dye solution (HBSS, containing BODIPY dye 1:1000 from stock solution) was added and cells were returned to the incubator for 30 min. After 2 brief washes with 0.1 ml warmed PBS fluorescence was measured in 50 µl PBS. Fluorescence for 4 individual areas per well were individually quantified at two wavelengths (Ex1: 490, Em1: 600; Ex2: 490, Em2: 530, bandwith 10nm, 50 flashes, 400Hz frequency, 20 µs integration time).

Complex II-III = assay: Measurement of mitochondrial complex II activity (SURFE2R CII-CIII assay); assay type: biochemical; settings: test compound ~4 µM, peak current normalized
Source text: Complex II (CII) is an enzyme complex bound to the matrix face of the inner mitochondrial membranes. It consists of four subunits with several different enzymatic activities. One of these is the citric acid-cycle enzyme succinate dehydrogenase, which catalyzes the conversion from succinate to fumarate. In this reaction electrons are transferred from succinate to the prosthetic group FAD thus generating FADH2 ([…] 2000). These electrons are then transferred from the reduced FADH2 to ubiquinone, from ubiquinone to the reaction centers of complex III (CIII), and finally to the cytochrome c. During this electron translocation process, complex III pumps four protons from matrix to the intermembrane space. These proton fluxes can be detected as electrical currents on SSM-based SURFE2R sensors (http://www.sd-heidelberg.de/index.html). In the SURFE2R CII-CIII assay, both, CII and CIII are activated simultaneously by first equilibrating the sensors with succinate and then activating the CII-CIII reaction by oxidized cytochrome c. The resulting efflux of protons out from the membrane compartment induces negative currents, which are sensitive to the CII and CIII inhibitors malonate and antimycin A, respectively. Experimental Procedure: SURFE2R SSM sensors were coated with inner mitochondrial membranes according to the standard protocols. Briefly, sensors were filled with 50 μL of SensorPrep A solution and incubated for 10-15 min. […] The biosensors were thawed immediately before the experiment and measured with the SURFE2R Workstation 50 or 500 devices. […] For the activity of CII-III, the peak current (current amplitude) was evaluated. […] Afterwards, a test compound (~4 μM) was supplied to the non-activating and the activating solutions and the CII-III activity was recorded for further ~50 min (110 min in total). […] For those test compounds, which activated CII-III by more than 30% at time 80 to 110 min, the CII-CIII activity was recorded for additional ~50 min (up to 160 min in total).

[2] = system: HepG2 hepatoblastoma cell line; assay: Cytotoxicity assay (WST-1); assay type: cell-based, human; settings: Hep-G2 cells, 24 hours exposure
Source text: This assay investigates cytotoxicity which is defined as the cell-killing property of a chemical compound, independent from the mechanisms of cell death. The HepG2 hepatoblastoma cell line is one of the most common human cell lines for hepatotoxicity studies. […] This assay measures metabolic activity of living cells using the WST-1 cell proliferation reagent (Roche Diagnostics). The tetrazolium salt WST-1 is cleaved to water soluble formazan by cellular enzymes. An expansion in the number of viable cells results in an increase in the overall activity of mitochondrial dehydrogenases in the sample. This augmentation in enzyme activity leads to an increase in the amount of formazan dye formed, which directly correlates to the number of metabolically active cells in the culture. The formazan dye produced by metabolically active cells is directly quantified in a scanning multiwell spectrophotometer by measuring the absorbance of the formazan dye solution between 420 and 480 nm. Healthy HepG2 cells, when maintained in culture, continuously divide and multiply over time. A toxic chemical, regardless of site and mechanism of action, will interfere with this process and result in the reduction of the growth rate reflected in the cell number.
Experimental Procedure: Hep-G2 cells are seeded into a 96-well microplate and maintained in culture for 24 hours. They are then exposed to the test compound over a range of eight concentrations. After 24 hours exposure, the cells are incubated in presence of reagent WST-1 for 30 min before measuring the absorbance of the formazan dye formed. Cytotoxicity is expressed as a concentration dependent reduction of the conversion formazan dye formation due to a decrease in cell proliferation as compared to untreated cells. The TC50 (Toxic Concentration 50%), is defined as the concentration of tested compound required to reduce the cellular viability by 50% relative to the control culture. The lower the TC50 value, the higher is the cytotoxic potential of the test compound. […]

SMILES | Lipid peroxidation [1] [%] | Complex II-III activity (Complex II-III) [%] | TC50 [2] [µM]
COC1=C(OC)C(=O)C(CCCCCCCCCCO)=C(C)C1=O [Compound IA, Idebenone] | 98 | 102 | 100
COC1=C(OC)C(=O)C(CCCCCCCCCC(C)(C)O)=C(C)C1=O [Compound IC] | 92 | 97 | 
CCCCCCCCCCCC1=C(O)C(=O)C=C(O)C1=O [Compound IE, Embelin] | 110 | 110 | 100

Source: patent EP2605769B1, “BENZOQUINONE DERIVATIVES FOR THE TREATMENT OF MITCHONDRIAL EYE DISEASES” (Santhera Pharmaceuticals (Schweiz) AG, priority 2010, dated 2012)
